Reference: patent US8436047B2, “Preventive or ameliorating agent for liver disease involving hepatopathy” (Suntory Holdings Limited, priority 2004, dated 2013)

Tested on: hepatopathy induced by galactosamine (GalN/LPS)
Test: Evaluation of 5,8,11-eicosatrienoic acid ethyl ester in an animal model of hepatopathy: serum GOT after GalN/LPS
Assay type: in vivo
Details: male ddY mice, 10 mg/kg orally for one week, then GalN 800 mg/kg / LPS 25 μg/kg i.p., blood six hours after; control group 1024±94 IU/L
Protocol: Four-week-old male ddY mice were orally given 10 mg/kg of 5,8,11-eicosatrienoic acid ethyl ester (mead acid) purified from the lipid SUNTGM17 prepared in Reference Example 1 for one week, and then they were intraperitoneally given physiological saline in which D-galactosamine and lipopolysaccharide were dissolved to 800 mg/kg and 25 μg/kg and mixed (GalN/LPS). Six hours after the GalN/LPS administration, blood was drawn, serum was separated, and GPT and GOT activities in the serum were determined, which confirmed that the GOT activity was 1024±94 IU/L in the control diet group, whereas it was 413±37 IU/L in the mead acid diet group, indicating a significant suppression of hepatopathy.

CCCCCCCCC=CCC=CCC=CCCCC(=O)OCC [5,8,11-eicosatrienoic acid ethyl ester]
GOT activity in the serum: 413±37 IU/L
